A short description of the data set: Stability of sorafenib-spiked plasma samples at different storage conditions. The data set is classed as physicochemical. As to the method:
The plasma was separated from the blood by centrifugation at 8,000 rpm for 10 min at […]. The plasma (200 µL) was spiked with sorafenib, dexamethasone, and IS, the protein was precipitated with acetonitrile, and the extraction of the analytes was carried out with ACN, MeOH, and DCM. The following plan was applied to obtain the sample (Figure 2), and a sample (20 µL) was applied for analysis.
Linearity was confirmed through least squares regression, while sensitivity was measured on the basis of the S/N ratio of HPLC software. The S/N ratios are 3 and 10 for LOD and LOQ, respectively. Similar robustness was tested through planned changes in parameters while stability studies were performed at different storage conditions (‒20°C, 4°C, and 25°C) for a month using Equation 3. % Stability=St/So X 100, (3) where St indicates stability at time t, and S0 indicates stability at time 0.

In the case of `CNC(=O)c1cc(Oc2ccc(NC(=O)Nc3ccc(Cl)c(C(F)(F)F)c3)cc2)ccn1` [sorafenib, Sorafenib], the “% Recovery (Mean ± SD)” value is 98.13 ± 0.19; 0.19% (4°C, 6 hours, 250 ng/mL); 98.29 ± 0.65; 0.66% (4°C, 6 hours, 500 ng/mL); 98.91 ± 0.91; 0.92% (4°C, 6 hours, 1,000 ng/mL); 98.11 ± 0.38; 0.77% (4°C, 24 hours, 250 ng/mL); 98.30 ± 0.67; 0.68% (4°C, 24 hours, 500 ng/mL); 98.05 ± 0.68; 0.69% (4°C, 24 hours, 1,000 ng/mL). Also, the “% Recovery (Mean ± SD)” value by setting is: (4°C, 72 hours, 250 ng/mL) 97.36 ± 0.85; 0.87%; (4°C, 72 hours, 500 ng/mL) 96.99 ± 0.32; 0.33%; (4°C, 72 hours, 1,000 ng/mL) 96.93 ± 0.48; 0.50%; (25°C, 0 hours, 250 ng/mL) 98.15 ± 0.44; 0.45%; (25°C, 0 hours, 500 ng/mL) 98.25 ± 0.55; 0.56%; (25°C, 0 hours, 1,000 ng/mL) 98.55 ± 0.19; 0.19%. Moreover, the “% Recovery (Mean ± SD)” value (25°C, 6 hours, 250 ng/mL) is 97.45 ± 0.34; 0.35%; the “% Recovery (Mean ± SD)” value (25°C, 6 hours, 500 ng/mL) was 97.39 ± 0.12; 0.12%; the “% Recovery (Mean ± SD)” value (25°C, 6 hours, 1,000 ng/mL) is 98.05 ± 0.15; 0.15%; the “% Recovery (Mean ± SD)” value (25°C, 24 hours, 250 ng/mL) is recorded as 95.51 ± 0.53; 0.55%; the “% Recovery (Mean ± SD)” value (25°C, 24 hours, 500 ng/mL) is 96.05 ± 0.41; 0.43%; the “% Recovery (Mean ± SD)” value (25°C, 24 hours, 1,000 ng/mL) was 97.55 ± 0.26; 0.27%. For the same compound, the “% Recovery (Mean ± SD)” value is, setting by setting: (25°C, 72 hours, 250 ng/mL) 85.90 ± 0.50; 0.58%; (25°C, 72 hours, 500 ng/mL) 84.95 ± 0.34; 0.40%; (25°C, 72 hours, 1,000 ng/mL) 88.25 ± 0.74; 0.84%; (freeze and thaw 3x, 250 ng/mL) 96.41 ± 0.17; 0.18%; (freeze and thaw 3x, 500 ng/mL) 97.05 ± 0.22; 0.23%; (freeze and thaw 3x, 1,000 ng/mL) 98.00 ± 0.87; 0.89%.

The values above are taken from PMC12014616, “HPLC-UV method development and validation for anticancer drug sorafenib and the co-prescribed drug dexamethasone: application to pharmacokinetic evaluation of sorafenib nanoformulations” (Frontiers in Pharmacology, 2025).
